Results on 25 compounds are retold here after US9862708B2, “Pyrazolone compounds and uses thereof” (Tempest Therapeutics, Inc., priority 2014, dated 2018).

The test concerns the target T1, human PPARα (Homo sapiens, UniProt Q07869).
T1 construct: host or cells: proprietary non-human mammalian cells
T1 sequence (Q07869 1-468): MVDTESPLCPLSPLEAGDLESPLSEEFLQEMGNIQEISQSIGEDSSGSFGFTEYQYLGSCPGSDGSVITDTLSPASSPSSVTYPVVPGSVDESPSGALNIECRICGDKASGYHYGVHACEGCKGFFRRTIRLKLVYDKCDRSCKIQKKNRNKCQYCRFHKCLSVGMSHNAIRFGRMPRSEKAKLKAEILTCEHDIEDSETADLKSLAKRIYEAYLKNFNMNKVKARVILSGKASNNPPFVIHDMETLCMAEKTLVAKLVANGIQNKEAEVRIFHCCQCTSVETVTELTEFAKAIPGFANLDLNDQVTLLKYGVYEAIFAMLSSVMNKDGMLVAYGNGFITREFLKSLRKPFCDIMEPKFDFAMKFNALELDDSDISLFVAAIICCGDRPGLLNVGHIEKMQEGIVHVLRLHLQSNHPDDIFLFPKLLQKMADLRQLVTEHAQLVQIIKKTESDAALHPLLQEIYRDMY
The experiment in a line: Human PPARα Reporter Assay (luciferase, Indigo Biosciences). The class given is cell-based. The note with it: antagonism; luciferase reporter cells, overnight incubation; read-out: PPARα IC50. As to the method:
Human PPARα Reporter Assay
The screening of test compounds for agonist or antagonist activities against human PPARα receptors was performed using a commercial kit, Human PPARα Reporter Assay System (Indigo Biosciences, Cat. #IB00111).
This nuclear receptor assay system utilizes proprietary non-human mammalian cells engineered to provide constitutive, high-level expression of Human PPARα. Because these cells incorporate a PPARα-responsive luciferase reporter gene, quantifying expressed luciferase activity provides a sensitive surrogate measure of PPARα activity in the treated cells. The primary application of this reporter assay system is in the screening of test samples to quantify any functional activity, either agonist or antagonist, that they may exert against human PPARα.
Briefly, reporter cells are dispensed into wells of the assay plate and then immediately dosed with test compounds. Following an overnight incubation, the treatment media is discarded and Luciferase Detection Reagent (LDR) is added. The intensity of light emission from the ensuing luciferase reaction provides a sensitive measure that is directly proportional to the relative level of PPARα activation in the reporter cells.
On the technique in general: In a reporter assay the amount or activity of a reporter protein is the signal.

Each structure is given as a SMILES string. pIC50: −log10 of the molar value.

Usually pIC50 stands for the IC50 on a negative log10 scale, so that one unit is a factor of ten. Take `CC(C)(Oc1ccc(CCCC2=NN(c3ccc(C(F)(F)F)cc3)C(=O)C2(C)C)cc1)C(=O)NS(=O)(=O)c1ccccc1` [Example 22, 2-(4-(3-(4,4-dimethyl-5-oxo-1-(4-(trifluoromethyl)phenyl)-4,5-dihydro-1H-pyrazol-3-yl)propyl)phenoxy)-2-methyl-N-(phenylsulfonyl)propanamide]: the pIC50 was 9.05.
Next, `CC(C)(Oc1ccc(CCCC2=NN(Cc3ccc(C(C)(C)C)cc3)C(=O)C23CCCC3)cc1)C(=O)O` [Example 23, 2-(4-(3-(3-(4-(tert-butyl)benzyl)-4-oxo-2,3-diazaspiro[4,4]non-1-en-1-yl)propyl)phenoxy)-2-methylpropanoic acid]: 7.89; `CC(C)(Oc1ccc(CCCC2=NN(c3ccc(C(F)(F)F)cc3)C(=O)C23CCCC3)cc1)C(=O)O` [Example 24, 2-methyl-2-(4-(3-(4-oxo-3-(4-(trifluoromethyl)phenyl)-2,3-diazaspiro[4,4]non-1-en-1-yl)propyl)phenoxy)propanoic acid]: 8.85.
As to `CC(C)(Oc1ccc(CCCC2=NN(c3ccc(C(F)(F)F)cc3)C(=O)C23CCCC3)cc1)C(=O)NS(=O)(=O)c1ccccc1` [Example 25, 2-methyl-2-(4-(3-(4-oxo-3-(4-(trifluoromethyl)phenyl)-2,3-diazaspiro[4,4]non-1-en-1-yl)propyl)phenoxy)-N-(phenylsulfonyl)propanamide], the negative logarithm of the IC50 (pIC50) was 9.00.
For `CC(C)(Oc1ccc(CCCC2=NN(c3ccc(C(F)(F)F)cc3)C(=O)C23CCCC3)cc1)C(=O)NC1CC1` [Example 26, N-cyclopropyl-2-methyl-2-(4-(3-(4-oxo-3-(4-(trifluoromethyl)phenyl)-2,3-diazaspiro[4,4]non-1-en-1-yl)propyl)phenoxy)propanamide], the negative logarithm of the IC50 (pIC50) is 6.96.
As for `CC(C)(Oc1ccc(CCCC2=NN(c3ccc(C(F)(F)F)cc3)C(=O)C23CCCC3)cc1)C(=O)NCC(F)(F)F` [Example 27, 2-methyl-2-(4-(3-(4-oxo-3-(4-(trifluoromethyl)phenyl)-2,3-diazaspiro[4,4]non-1-en-1-yl)propyl)phenoxy)-N-(2,2,2-trifluoroethyl)propanamide], the figure is 6.39; as for `CC(C)(Oc1ccc(CCCC2=NN(c3ccc(OC(F)(F)F)cc3)C(=O)C23CCCC3)cc1)C(=O)O` [Example 28, 2-methyl-2-(4-(3-(4-oxo-3-(4-(trifluoromethoxy)phenyl)-2,3-diazaspiro[4,4]non-1-en-1-yl)propyl)phenoxy)propanoic acid], 9.01.
On to `CC(C)(Oc1ccc(CCCC2=NN(c3ccc(OC(F)(F)F)cc3)C(=O)C23CCCC3)cc1)C(=O)NC1CC1` [Example 29, N-cyclopropyl-2-methyl-2-(4-(3-(4-oxo-3-(4-(trifluoromethoxy)phenyl)-2,3-diazaspiro[4,4]non-1-en-1-yl)propyl)phenoxy)propanamide], for which the negative logarithm of the IC50 (pIC50) is 7.16.
In the case of `CC(C)(Oc1ccc(CCCC2=NN(c3ccc(OC(F)(F)F)cc3)C(=O)C23CCCC3)cc1)C(=O)NCC(F)(F)F` [Example 30, 2-methyl-2-(4-(3-(4-oxo-3-(4-(trifluoromethoxy)phenyl)-2,3-diazaspiro[4,4]non-1-en-1-yl)propyl)phenoxy)-N-(2,2,2-trifluoroethyl)propanamide], the negative-log IC50 (pIC50) was 6.15.
As for `Cc1ccc(N2N=C(CCCc3ccc(OC(C)(C)C(=O)O)cc3)C3(CCCC3)C2=O)cc1C` [Example 31, 2-(4-(3-(3-(3,4-dimethylphenyl)-4-oxo-2,3-diazaspiro[4,4]non-1-en-1-yl)propyl)phenoxy)-2-methylpropanoic acid], the figure is 8.59; as for `Cc1ccc(N2N=C(CCCc3ccc(OC(C)(C)C(=O)NC4CC4)cc3)C3(CCCC3)C2=O)cc1C` [Example 32, N-cyclopropyl-2-(4-(3-(3-(3,4-dimethylphenyl)-4-oxo-2,3-diazaspiro[4,4]non-1-en-1-yl)propyl)phenoxy)-2-methylpropanamide], 6.60; as for `Cc1ccc(N2N=C(CCCc3ccc(OC(C)(C)C(=O)NCC(F)(F)F)cc3)C3(CCCC3)C2=O)cc1C` [Example 33, 2-(4-(3-(3-(3,4-dimethylphenyl)-4-oxo-2,3-diazaspiro[4,4]non-1-en-1-yl)propyl)phenoxy)-2-methyl-N-(2,2,2-trifluoroethyl)propanamide], 6.30.
For the compound `CC(C)(Oc1ccc(CCCC2=NN(Cc3ccc(C(F)(F)F)cc3)C(=O)C23CCCC3)cc1)C(=O)O` [Example 34, 2-methyl-2-(4-(3-(4-oxo-3-(4-(trifluoromethyl)benzyl)-2,3-diazaspiro[4,4]non-1-en-1-yl)propyl)phenoxy)propanoic acid], the negative-log IC50 (pIC50) was 6.02.
`CC(C)(Oc1ccc(CCCC2=NN(c3cccc(C(F)(F)F)c3)C(=O)C23CCCC3)cc1)C(=O)O` [Example 35, 2-methyl-2-(4-(3-(4-oxo-3-(3-(trifluoromethyl)phenyl)-2,3-diazaspiro[4,4]non-1-en-1-yl)propyl)phenoxy)propanoic acid]: the negative logarithm of the IC50 (pIC50) is 7.49.
In the case of `CC(C)(Oc1ccc(CCCC2=NN(c3cccc(OC(F)(F)F)c3)C(=O)C23CCCC3)cc1)C(=O)O` [Example 36, 2-methyl-2-(4-(3-(4-oxo-3-(3-(trifluoromethoxy)phenyl)-2,3-diazaspiro[4,4]non-1-en-1-yl)propyl)phenoxy)propanoic acid], the negative logarithm of the IC50 (pIC50) was 7.57.
With `CC(C)(Oc1ccc(CCCC2=NN(c3ccc4ccccc4c3)C(=O)C23CCCC3)cc1)C(=O)O` [Example 37, 2-methyl-2-(4-(3-(3-(naphthalen-2-yl)-4-oxo-2,3-diazaspiro[4,4]non-1-en-1-yl)propyl)phenoxy)propanoic acid], the pIC50 is 8.55.
Next, `CC(C)(Oc1ccc(CCCC2=NN(c3cccc(-c4ccccc4)c3)C(=O)C23CCCC3)cc1)C(=O)O` [Example 38, 2-(4-(3-(3-([1,1′-biphenyl]-3-yl)-4-oxo-2,3-diazaspiro[4,4]non-1-en-1-yl)propyl)phenoxy)-2-methylpropanoic acid]: 7.60.
`Cc1ccc(N2N=C(CCCc3ccc(OC(C)(C)C(=O)O)cc3)C3(CCCC3)C2=O)cc1C(F)(F)F` [Example 39, 2-methyl-2-(4-(3-(3-(4-methyl-3-(trifluoromethyl)phenyl)-4-oxo-2,3-diazaspiro[4,4]non-1-en-1-yl)propyl)phenoxy)propanoic acid]: the pIC50 was 8.51.
Next, `CC(C)(Oc1ccc(CCCC2=NN(c3cccc(C(C)(C)C)c3)C(=O)C23CCCC3)cc1)C(=O)O` [Example 40, 2-(4-(3-(3-(3-(tert-butyl)phenyl)-4-oxo-2,3-diazaspiro[4,4]non-1-en-1-yl)propyl)phenoxy)-2-methylpropanoic acid]: 7.70.
As for `CCCC1(CCC)C(=O)N(c2ccc(C(F)(F)F)cc2)N=C1CCCc1ccc(OC(C)(C)C(=O)O)cc1` [Example 41, 2-methyl-2-(4-(3-(5-oxo-4,4-dipropyl-1-(4-(trifluoromethyl)phenyl)-4,5-dihydro-1H-pyrazol-3-yl)propyl)phenoxy)propanoic acid], the figure is 4.82; as for `CCCC1(CCC)C(=O)N(c2cccc(C(F)(F)F)c2)N=C1CCCc1ccc(OC(C)(C)C(=O)O)cc1` [Example 42, 2-methyl-2-(4-(3-(5-oxo-4,4-dipropyl-1-(3-(trifluoromethyl)phenyl)-4,5-dihydro-1H-pyrazol-3-yl)propyl)phenoxy)propanoic acid], 4.47.
As for `CC1(C)C(=O)N(c2ccc(C(F)(F)F)cc2)N=C1CCCc1ccc(OC(C)(C)C(O)C(F)(F)F)cc1` (stereo not shown) [Example 43, 4,4-dimethyl-3-(3-(4-((4,4,4-trifluoro-3-hydroxy-2-methylbutan-2-yl)oxy)phenyl)propyl)-1-(4-(trifluoromethyl)phenyl)-1H-pyrazol-5(4H)-one], the figure is 5.92; as for `CC(C)(Oc1ccc(CCCC2=NN(c3ccc(C(F)(F)F)cc3)C(=O)C2(C)C)cc1)C(=O)C(F)(F)F` [Example 44, 4,4-dimethyl-3-(3-(4-((4,4,4-trifluoro-2-methyl-3-oxobutan-2-yl)oxy)phenyl)propyl)-1-(4-(trifluoromethyl)phenyl)-1H-pyrazol-5(4H)-one], 6.21.
As for `CC(C)(CN)Oc1ccc(CCCC2=NN(c3ccc(C(F)(F)F)cc3)C(=O)C23CCCC3)cc1` [Example 45, 4-(3-(4-((1-amino-2-methylpropan-2-yl)oxy)phenyl)propyl)-2-(4-(trifluoromethyl)phenyl)-2,3-diazaspiro[4,4]non-3-en-1-one], the negative-log IC50 (pIC50) was 6.08.
For `CC(C)(CNS(=O)(=O)c1ccccc1)Oc1ccc(CCCC2=NN(c3ccc(C(F)(F)F)cc3)C(=O)C23CCCC3)cc1` [Example 46, N-(2-methyl-2-(4-(3-(4-oxo-3-(4-(trifluoromethyl)phenyl)-2,3-diazaspiro[4,4]non-1-en-1-yl)propyl)phenoxy)propyl)benzenesulfonamide], the pIC50 is 5.89.
